From a melting point compilation (Tetko et al.; mined from patent text by program, amines drawn as free bases though some values may be those of a salt) come the findings set out here.

Where only a bound is given, the exact number is not on record here.

Regarding `CCCCCC1C=CC(c2ccc(C(F)(F)F)cc2)=CC1` (stereo not drawn), the melting point (usually the temperature of the solid-liquid transition) is 54 °C. In turn, `Cc1ccc(S(=O)(=O)N(C)CC(=O)N2CCC[C@H]2C=O)cc1` displayed a melting point of 111 °C. Turning to `CCOC(=O)c1ccc2c(c1)CCCC2Cn1ccnc1S` (stereo not drawn), the melting point lay in the range of 155 to 156 °C. The compound `CSC1C(=O)Nc2c(Oc3ccc4ccccc4c3)cccc21` (stereo not drawn) showed a melting point of 174 to 175 °C. On to `COC1CCN(Cc2ccc(COc3cccc4c3CN(C3CCC(=O)NC3=O)C4=O)cc2)CC1` (stereo not drawn), for which the melting point lay in the range of 149 to 151 °C. For `COc1ccccc1C1(O[Si](C)(C)C)C(=O)Nc2ccc(Cl)cc21` (stereo not drawn), the melting point lay within 185 to 187 °C. For the compound `CC1(n2cccc2)CN(c2c(F)cc3c(=O)c(C(=O)O)cn(C4CC4)c3c2F)C1`, the melting point was 249 to 252 °C. Compound `CN1CCc2cc(Cl)c(N)cc2[C@@H](c2ccccc2)C1` showed a melting point of 68 to 70 °C. In turn, `CC(=O)NNC1=Nc2sc(Cl)cc2C(c2c(F)cccc2F)=NC1` registered a melting point of 257 to 260 °C.

The compound `CC(C)(C)c1csc(-c2cc3cc(CCl)ccc3o2)n1` registered a melting point of 117 to 119 °C. Next, `COc1ccc(Oc2ccc3ccc(N)nc3n2)cc1`: 200 °C; `COC(=O)c1ccc(CNC(C)=O)cc1`: 110 to 111 °C; `Cc1ccncc1Cn1nnnc1-c1cccc(Cl)c1Cl`: 154 to 156 °C. Next, `CN1CCC(NNC(=O)c2ccccc2)CC1`: 149 to 150 °C; `CC(C)(C)c1cc(-c2nn(C3(C)COC(=O)O3)c3ncccc23)cc(C(C)(C)C)c1O` (stereo not drawn): 190 to 191 °C; `Cc1nc(-c2ccccc2)nc(-c2cccc([N+](=O)[O-])c2)c1CNC(N)=S`: 227 to 229 °C. `CSCCC(=O)Nc1ccc(-n2nc(C(F)(F)F)cc2C(F)(F)F)cc1` gave a melting point of 122 to 123 °C. Next, `CCOc1ccc2[nH]cc(CC(C)(C(=O)OC)[N+](=O)[O-])c2c1` (racemic): 80 to 82 °C; `O=C1CCc2c(-c3ccncc3)sc(-c3ccncc3)c21`: 168 to 170 °C. Regarding `CC(=O)OCCn1ncc(-c2ncc([N+](=O)[O-])n2C)c1C`, the melting point worked out at 79 °C. Next, `Cc1ccc(C)c(NC(=O)CN2C(=O)C3(COc4cc5c(cc43)CCO5)c3ccccc32)c1` (stereo not drawn): 250 to 252 °C; `CC1=C(c2ccc(Cl)cc2)n2ncc3c(=O)[nH]c(=S)n(c32)C1`: 283 to 285 °C. As to `COC(=O)c1ccc2cc(CCCCCc3cc4ccc(C(=O)OC)cc4o3)oc2c1`, the melting point lay within 83 to 85 °C. Compound `Nc1nc(Nc2ccc(SC3(Cl)C=CC(C(F)(F)F)=CN3)cc2)sc1C(=O)c1ccccc1[N+](=O)[O-]` (stereo not drawn) registered a melting point of 150 to 152 °C.

`CC(C)(C)OC(=O)[C@H]1CCCN1` had a melting point of 51.5 to 53.2 °C. In the case of `Cc1c(Cc2ccccc2)c(=O)oc2cc(OCC(=N)NO)cc(OCC(=N)NO)c12`, the melting point was in the range of 155 to 160 °C. `CCCCOCc1cc2ccccc2oc1=Nc1ccccc1` displayed a melting point of 86 to 88 °C. Compound `O=C1NCc2cc(C(c3ccccc3)n3ccnc3)ccc2N1` (stereo not drawn) displayed a melting point of 222 °C. Turning to `COc1ccc(C(=O)N(C(=O)c2ccc(OC)cc2)c2nc3ccc([N+](=O)[O-])cc3c(NCc3ccccc3)c2C#N)cc1`, the melting point fell in the range of 145 to 148 °C. The compound `Cc1cc(-c2ccc(Cl)c(OC3SCC(O)C(O)C3O)c2)ccn1` (stereo not drawn) came in with a melting point of 137 °C. Regarding `Cc1cccc(Nc2nc(-c3cn[nH]c3)c(F)s2)n1`, the melting point is 204 °C. Consider `Cc1cccc(-c2nc(N)sc2-c2ccc(F)c(-c3cnn(C)c3)c2)n1`, for which the melting point fell in the range of 153 to 155 °C.

Compound `Nc1ncc(CN2CCN(c3cccc(Cl)c3)CC2)c(N)n1` displayed a melting point of 222 to 226 °C. Take `CC(C)Oc1ccc2c(O)c(C(=O)O)nc(Cl)c2c1`: the melting point lay within 139 to 141 °C. As to `CC(C)n1nc(-c2cc(-c3ccn[nH]3)cnc2-c2ccccc2)ccc1=O`, the melting point was 212 to 213 °C.

With `COC(=O)c1nc(-c2ccc(Cl)c(OC)c2F)c(F)c(N)c1SC`, the melting point lay in the range of 113 to 117 °C. Next, `COc1cc(C)cc(-c2n[nH]cc2-c2cc(NC[C@H](C)O)nc(Cl)n2)c1`: 256 °C. In the case of `Cc1nc(-c2ncn3c2[C@@H]2CCCN2C(=O)c2c(Cl)cccc2-3)n(C)n1`, the melting point fell in the range of 221 to 222 °C. `CN1C(=O)Nc2ccccc2C1(O)C(=O)NC(N)=O` (stereo not drawn): the melting point is over 280 °C. Compound `COc1ccc2c(c1)CCCC2(N)C(=O)O` (stereo not drawn) showed a melting point of over 250 °C.

`CCC(=O)N(Cc1cccc(-c2ccccc2)c1)c1cccc(-c2nnn[nH]2)c1`: the melting point came to 91 °C. Consider `CC(C)(C)NCC(O)C(Cl)(Cl)Cl` (stereo not drawn), for which the melting point lay in the range of 48 to 50 °C. Compound `CC(C)OC(=O)C(C(=O)O)=C1SCS1` returned a melting point of 123 to 124 °C.

On to `Cc1nc(NC(=O)c2cccc(Cl)c2)sc1C(=O)NCc1ccccc1`, for which the melting point fell in the range of 178 to 179 °C. Next, `CC1(O)CC2c3ccccc3CCN2C2CCCCC21` (stereo not drawn): 85 to 88 °C.

Turning to `Cc1ccc(Cl)cc1NC(=S)n1c(C)cc2ccccc21`, the melting point lay in the range of 121 to 122 °C. `Cc1oc(=O)oc1Cn1nnc(-c2ccnc(-c3nnn(Cc4oc(=O)oc4C)n3)c2)n1` registered a melting point of 150 to 152 °C. `Cc1cccc(NC(=O)NCC(=O)N(CC(=O)N(c2ccccc2)C(C)C)c2ccccc2)c1` gave a melting point of 170 °C. As to `C[C@@H]([C@H](O)c1ccc(O)cc1)N1CCC(O)(Cc2ccccc2)CC1` (relative stereo), the melting point lay within 173 to 174 °C.

`CC(C)Cn1c(=O)[nH]c(=O)c2cc(Cc3cccc4ccccc34)sc21` yielded a melting point of 189 to 190 °C. With `CC(=O)Nc1cc(C(F)(F)F)ccc1S(=O)(=O)CC#N`, the melting point was 146 to 147 °C. In turn, `CCC(C)C[C@@H]1O[C@H](CC(=O)Nc2ccc(OC(F)(F)C(=O)O)cc2)C(=O)N(CC(C)(C)CO)c2ccc(Cl)cc21` (stereo partly drawn) showed a melting point of 149 to 150 °C. For `c1ccc(C(c2ccccc2)N2CCN(Cc3cscn3)CC2)cc1`, the melting point fell in the range of 114 to 116 °C. `CCCN=C(N)Nc1ccnc(CCCCc2c[nH]cn2)n1`: the melting point lay within 172 to 174 °C. In the case of `COc1ccc2sc(C(N)=O)c(S(=O)(=O)C(C)C)c2c1`, the melting point is 169 to 170 °C.

In turn, `CNC(=O)[C@@H]1CSCc2c(O)cc(O)c(C)c2C(=O)OC[C@H](O)C(=O)N1` came in with a melting point of 275 °C. As for `Nc1nc(-c2ccccc2)c(-c2ccc(=O)n(Cc3ccccc3)n2)s1`, the melting point lay within 225 to 228 °C. Compound `CCCC(=O)NCC1(C)Cc2c(C)c(N3CCN(c4ccc(OC)cc4)CC3)c(C)c(C)c2O1` (stereo not drawn) had a melting point of 140 to 142 °C.

As for `NC(=O)c1nc(-c2ccccc2)[nH]c1N`, the melting point came out at 300 °C. Then `CCN(CC)CCNC(=O)N1CCC(S(=O)(=O)c2ccc(Cl)cc2)C1` (stereo not drawn), with 86 to 87.5 °C; and `O=C1Nc2cccnc2N(C(=O)NCCN2CCCCC2CN2CCOCC2)c2ccccc21` (stereo not drawn), with 167 °C; and `O=C(COc1ccc(Cl)cc1)CS(=O)(=O)C(c1ccc(Cl)cc1)c1ccc(Cl)cc1`, with 105 to 107 °C. `c1ccc(CCN2CCN(c3n[nH]c4c3CCc3sccc3-4)CC2)cc1` returned a melting point of 145 to 147 °C.
